# From PubChem BioAssay (NCI)
#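 How tested: cells in 96-well plates exposed to compound for 48 hours at five concentrations. The concentration for full growth arrest is given as TGI.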
# Key:
# Assay in all cases: growth of human tumour cells (NCI), 48 h
# [1] = system: MDA-MB-231 breast
# [2] = system: OVCAR-5 ovarian
# [3] = system: MDA-N
# [4] = system: SK-MEL-28 melanoma
# [5] = system: MDA-MB-435
# [6] = system: SF-268 CNS
# [7] = system: SF-295 CNS
# [8] = system: OVCAR-8 ovarian
# [9] = system: HL-60(TB) leukemia
# [10] = system: MCF7 breast
# [11] = system: DU-145 prostate
# [12] = system: MOLT-4 leukemia
# [13] = system: EKVX NSCLC
# [14] = system: UO-31 renal
# [15] = system: HT29 colon
# [16] = system: HCC-2998 colon
# [17] = system: M14 melanoma
# [18] = system: OVCAR-3 ovarian
# [19] = system: IGROV1 ovarian
# [20] = system: CCRF-CEM leukemia
# [21] = system: A498 renal
# [22] = system: A549 NSCLC
# [23] = system: ACHN renal
# [24] = system: SR leukemia
# [25] = system: HOP-62 NSCLC
# [26] = system: MALME-3M melanoma
# [27] = system: K-562 leukemia
# [28] = system: HCT-15 colon
# [29] = system: COLO 205 colon
# [30] = system: RXF 393 renal
# [31] = system: KM12 colon
# [32] = system: HCT-116 colon
# [33] = system: NCI-H460 lung
# [34] = system: RPMI-8226 leukemia
# [35] = system: LOX IMVI melanoma
# [36] = system: TK-10 renal
# [37] = system: BT-549 breast
# [38] = system: PC-3 prostate
# [39] = system: U251 CNS
# [40] = system: SNB-19 CNS
# [41] = system: UACC-257 melanoma
# [42] = system: SN12C renal
# [43] = system: SK-MEL-5 melanoma
# [44] = system: SF-539 CNS
# [45] = system: OVCAR-4 ovarian
# [46] = system: NCI/ADR-RES ovarian
# [47] = system: HOP-92 NSCLC
# [48] = system: 786-0 renal
# [49] = system: SW-620 colon
# [50] = system: NCI-H226 lung
# [51] = system: NCI-H23 lung
# [52] = system: CAKI-1 renal
# [53] = system: SNB-75 CNS
# [54] = system: NCI-H522 lung
# [55] = system: HS 578T breast
# [56] = system: UACC-62 melanoma
# [57] = system: SK-MEL-2 melanoma
# [58] = system: SK-OV-3 ovarian
smiles,measurement,setting,value
CN(C)Nc1cc(=O)[nH]c(=O)[nH]1,TGI,[1],> 100 µM
same,TGI,[2],> 100 µM
same,TGI,[3],> 100 µM
same,TGI,[4],> 100 µM
same,TGI,[5],> 100 µM
same,TGI,[6],> 100 µM
same,TGI,[7],> 100 µM
same,TGI,[8],> 100 µM
same,TGI,[9],> 100 µM
same,TGI,[10],> 100 µM
same,TGI,[11],> 100 µM
same,TGI,[12],> 100 µM
same,TGI,[13],> 100 µM
same,TGI,[14],> 100 µM
same,TGI,[15],> 100 µM
same,TGI,[16],> 100 µM
same,TGI,[17],> 100 µM
same,TGI,[18],> 100 µM
same,TGI,[19],> 100 µM
same,TGI,[20],> 100 µM
same,TGI,[21],> 100 µM
same,TGI,[22],> 100 µM
same,TGI,[23],> 100 µM
same,TGI,[24],> 100 µM
same,TGI,[25],> 100 µM
same,TGI,[26],> 100 µM
same,TGI,[27],> 100 µM
same,TGI,[28],> 100 µM
same,TGI,[29],> 100 µM
same,TGI,[30],> 100 µM
same,TGI,[31],> 100 µM
same,TGI,[32],> 100 µM
same,TGI,[33],> 100 µM
same,TGI,[34],> 100 µM
same,TGI,[35],> 100 µM
same,TGI,[36],> 100 µM
same,TGI,[37],> 100 µM
same,TGI,[38],> 100 µM
same,TGI,[39],> 100 µM
same,TGI,[40],> 100 µM
same,TGI,[41],> 100 µM
same,TGI,[42],> 100 µM
same,TGI,[43],> 100 µM
same,TGI,[44],> 100 µM
same,TGI,[45],> 100 µM
same,TGI,[46],> 100 µM
same,TGI,[47],> 100 µM
same,TGI,[48],> 100 µM
same,TGI,[49],> 100 µM
same,TGI,[50],> 100 µM
CSc1ccc(C(=C=C=C(c2ccc(SC)s2)c2ccc(SC)s2)c2ccc(SC)s2)s1,TGI,[1],> 10 µM
same,TGI,[2],> 10 µM
same,TGI,[3],> 10 µM
same,TGI,[4],> 10 µM
same,TGI,[5],> 10 µM
same,TGI,[6],> 10 µM
same,TGI,[7],> 10 µM
same,TGI,[8],> 10 µM
same,TGI,[11],> 10 µM
same,TGI,[13],> 10 µM
same,TGI,[51],> 10 µM
same,TGI,[14],> 10 µM
same,TGI,[15],> 10 µM
same,TGI,[17],> 10 µM
same,TGI,[18],> 10 µM
same,TGI,[19],> 10 µM
same,TGI,[21],> 10 µM
same,TGI,[22],> 10 µM
same,TGI,[23],> 10 µM
same,TGI,[52],> 10 µM
same,TGI,[28],> 10 µM
same,TGI,[29],> 10 µM
same,TGI,[30],> 10 µM
same,TGI,[31],> 10 µM
same,TGI,[32],> 10 µM
same,TGI,[53],> 10 µM
same,TGI,[36],> 10 µM
same,TGI,[38],> 10 µM
same,TGI,[39],> 10 µM
same,TGI,[40],> 10 µM
same,TGI,[42],> 10 µM
same,TGI,[43],> 10 µM
same,TGI,[44],> 10 µM
same,TGI,[45],> 10 µM
same,TGI,[46],> 10 µM
same,TGI,[47],> 10 µM
same,TGI,[49],> 10 µM
same,TGI,[50],> 10 µM
Cc1csc2c(=O)n(C3OC(CO)C(O)C3O)c(=O)[nH]c12 (stereo unspecified),TGI,[1],> 100 µM
same,TGI,[2],> 100 µM
same,TGI,[3],> 100 µM
same,TGI,[4],> 100 µM
same,TGI,[54],> 100 µM
same,TGI,[5],> 100 µM
same,TGI,[6],> 100 µM
same,TGI,[7],> 100 µM
same,TGI,[8],> 100 µM
same,TGI,[9],> 100 µM
same,TGI,[10],> 100 µM
same,TGI,[11],> 100 µM
same,TGI,[12],> 100 µM
same,TGI,[13],> 100 µM
same,TGI,[51],> 100 µM
same,TGI,[14],> 100 µM
same,TGI,[15],> 100 µM
same,TGI,[17],> 100 µM
same,TGI,[18],> 100 µM
same,TGI,[19],> 100 µM
same,TGI,[20],> 100 µM
same,TGI,[21],> 100 µM
same,TGI,[55],> 100 µM
same,TGI,[22],> 100 µM
same,TGI,[23],> 100 µM
same,TGI,[52],> 100 µM
same,TGI,[24],> 100 µM
same,TGI,[25],> 100 µM
same,TGI,[26],> 100 µM
same,TGI,[27],> 100 µM
same,TGI,[29],> 100 µM
same,TGI,[30],> 100 µM
same,TGI,[31],> 100 µM
same,TGI,[32],> 100 µM
same,TGI,[53],> 100 µM
same,TGI,[33],> 100 µM
same,TGI,[34],> 100 µM
same,TGI,[35],> 100 µM
same,TGI,[36],> 100 µM
same,TGI,[37],> 100 µM
same,TGI,[38],> 100 µM
same,TGI,[39],> 100 µM
same,TGI,[40],> 100 µM
same,TGI,[41],> 100 µM
same,TGI,[42],> 100 µM
same,TGI,[43],> 100 µM
same,TGI,[44],> 100 µM
same,TGI,[45],> 100 µM
same,TGI,[46],> 100 µM
same,TGI,[47],> 100 µM
same,TGI,[48],> 100 µM
same,TGI,[49],> 100 µM
same,TGI,[50],> 100 µM
CCOP(=O)(OCC)/C(C#N)=C/c1ncc[nH]1,TGI,[1],> 100 µM
same,TGI,[2],> 100 µM
same,TGI,[3],> 100 µM
same,TGI,[4],> 100 µM
same,TGI,[54],> 100 µM
same,TGI,[5],> 100 µM
same,TGI,[6],> 100 µM
same,TGI,[7],> 100 µM
same,TGI,[8],> 100 µM
same,TGI,[9],> 100 µM
same,TGI,[10],> 100 µM
same,TGI,[11],> 100 µM
same,TGI,[12],> 100 µM
same,TGI,[13],> 100 µM
same,TGI,[51],> 100 µM
same,TGI,[14],> 100 µM
same,TGI,[56],> 100 µM
same,TGI,[15],> 100 µM
same,TGI,[16],> 100 µM
same,TGI,[17],> 100 µM
same,TGI,[57],> 100 µM
same,TGI,[18],> 100 µM
same,TGI,[20],> 100 µM
same,TGI,[21],> 100 µM
same,TGI,[55],> 100 µM
same,TGI,[22],> 100 µM
same,TGI,[58],> 100 µM
same,TGI,[23],> 100 µM
same,TGI,[52],> 100 µM
same,TGI,[24],> 100 µM
same,TGI,[25],> 100 µM
same,TGI,[26],> 100 µM
same,TGI,[27],> 100 µM
same,TGI,[29],> 100 µM
same,TGI,[30],> 100 µM
same,TGI,[31],> 100 µM
same,TGI,[32],> 100 µM
same,TGI,[53],> 100 µM
same,TGI,[33],> 100 µM
same,TGI,[34],> 100 µM
same,TGI,[35],> 100 µM
same,TGI,[37],> 100 µM
same,TGI,[38],> 100 µM
same,TGI,[39],> 100 µM
same,TGI,[40],> 100 µM
same,TGI,[41],> 100 µM
same,TGI,[42],> 100 µM
same,TGI,[43],> 100 µM
same,TGI,[44],72.9 µM
same,TGI,[45],> 100 µM
same,TGI,[46],> 100 µM
same,TGI,[47],> 100 µM
same,TGI,[48],> 100 µM
same,TGI,[49],> 100 µM
same,TGI,[50],> 100 µM
